Legend:
[1] = target: GSK-3β (AA 1-420) (Homo sapiens (Human), UniProt P49841); assay: GSK-3 inhibition assay (standard coupled enzyme system); format: biochemical; details: 20 μM ATP, 300 μM peptide, 20 nM GSK-3β, 30° C.
Protocol: Compounds of the present invention were screened for their ability to inhibit GSK-3β (AA 1-420) activity using a standard coupled enzyme system (Fox et al., Protein Sci. 1998, 7, 2249). Reactions were carried out in a solution containing 100 mM HEPES (pH 7.5), 10 mM MgCl2, 25 mM NaCl, 300 μM NADH, 1 mM DTT and 1.5% DMSO. Final substrate concentrations in the assay were 20 μM ATP (Sigma Chemicals, St Louis, Mo.) and 300 μM peptide (American Peptide, Sunnyvale, Calif.). Reactions were carried out at 30° C. and 20 nM GSK-3β. Final concentrations of the components of the coupled enzyme system were 2.5 mM phosphoenolpyruvate, 300 μM NADH, 30 μg/ml pyruvate kinase and 10 μg/ml lactate dehydrogenase.
An assay stock buffer solution was prepared containing all of the reagents listed above with the exception of ATP and the test compound of the present invention. The assay stock buffer solution (175 μl) was incubated in a 96 well plate with 5 μl of the test compound of the present invention at final concentrations spanning 0.002 μM to 30 μM at 30° C. for 10 min. Typically, a 12-point titration was conducted by preparing serial dilutions (from 10 mM compound stocks) with DMSO of the test compounds of the present invention in daughter plates. The reaction was initiated by the addition of 20 μl of ATP (final concentration 20 μM). Rates of reaction were obtained using a Molecular Devices Spectramax plate reader (Sunnyvale, Calif.) over 10 min at 30° C. The Ki values were determined from the rate data as a function of inhibitor concentration.

[2] = target: GSK3α TYR 279 (Homo sapiens (Human), UniProt P49840); assay: GSK-3α p-TYR inhibition assay (western blotting of Jurkat cells); format: cell-based; details: compound incubated o/n, western blot, read-out: GSK3a pTYR 279: IC50
Protocol: (§1) Compounds are screened for their ability to inhibit the phosphorylation of tyrosine (TYR) residues through the use of western blotting of Jurkat cells dosed with the compounds. The phosphorylation of the specific TYR residues tested are GSK3α TYR 279 and GSK3β TYR 216.
(§2) Jurkat cells are seeded at a density of 2×10^5 cells/well in a 12 well dish in starvation media (RPMI+1% FBS+P/S). Following starvation for 16 hours, the compound is dosed into each well at a final DMSO concentration of 0.3% and cells are incubated o/n at 37° C. 5% CO2. The next day, cells are spun down at 1500 rpm, washed with PBS, and lysed in 100 uL Laemli sample buffer with β-mercaptoethanol.
(§3) 15 microliters (uL) of cell lysates are loaded onto a 10% tris-glycine gel and run at 120 v for 2 hours or until dye front runs off of the gel. The protein is then transferred onto a PVDF membrane at 100 v for 60 min. PBST (PBS containing 0.1% Tween 20, such as 1 ml Tween per 1 L of PBS) is then made up and used for all washes and antibody incubations. The blot is blocked in 5% nonfat milk PBST for one hour.
(§4) The primary antibody (GSK-3α/β pTYR 279/216 at 1:1000 dilution Upstate cat #05-413) is then added in 5%-nonfat milk PBST overnight at 4° C. with gentle rocking. The blot is then washed in PBST for 5 min. This is then repeated 4 times. A secondary anti-mouse-HRP conjugated antibody (1:5000 dilution) is added for 60 min in 5% milk PBST. The blot is then washed in PBST for 5 min. This is also repeated 4 times. 3.0 mL of the developing solution (ECL plus Western Blotting Detection System from Amersham/GE cat # RPN2132) is made and then added. The solution is swirled over the blot for ˜30 sec. The blot is then developed using CL-Xposure clear blue X-ray film. GAPDH expression level is used as a loading control, (GAPDH antibody: santa cruz 25-778) at 1:10000 dilution.
(§5) For determination of GSK-3α and GSK-3β pTYR IC50, the density of the respective bands for each protein at specific compound concentration is compared to a no compound DMSO treated control cell sample present on each exposure.

[3] = target: GSK3β TYR 216 (Homo sapiens (Human), UniProt P49841); assay: GSK3β p-TYR inhibition assay (western blotting of Jurkat cells); format: cell-based; details: compound incubated o/n, western blot, read-out: GSK3b pTYR 216: IC50
Protocol: as §1, §2, §3, §4, §5

[4] = system: β-catenin dependent TCF/LEF transcriptional activity; assay: β-catenin stabilization protocol (β-lactamase reporter assay in Jurkat cells); format: cell-based; details: Homo sapiens, 460/530 ratio, 50% of the maximum effect, read-out: Beta Catenin IC50
Text: GSK-3 phosphorylation of β-catenin targets it to the proteosome for degradation. Inhibition of GSK-3 results in accumulation of β-catenin in the cytosol of cells which through interaction with the transcription factor TCF/LEF translocates to the nucleus and drives the transcription of Wnt-dependent genes. The assay is designed to determine the level of β-catenin dependent TCF/LEF transcriptional activity in a quantitative manner through the use of a β-lactamase reporter assay in Jurkat cells dosed with a compound.
Jurkat β-catenin cells are starved overnight in assay media (1% FBS, 1× Penstrep, RPMI) in the flask. The next day Jurkat β-catenin cells are seeded in 96 well flat bottom plates at a density of 50,000 cells/well in assay media in a volume of 100 ul. The compound is added to the well at a final DMSO concentration of 0.75% and incubated at 37° C. o/n. The next day, 20 uL of 6× CCF4 dye is added to the wells and incubated at room temperature for 1-2 hours. Plates are read on the Cytofluor 4000 series multiwell plate reader and the 460/530 ratio is determined.

[5] = system: amyloid-β peptides; details: mice over-expressing APP, treated over a three-week period; cited from earlier work
[6] = system: infarct size in rat brains; details: after transient MCAO in rats; cited from earlier work

Chain of GSK-3β (AA 1-420) (P49841 whole entry, species assumed, the tested form may be a part): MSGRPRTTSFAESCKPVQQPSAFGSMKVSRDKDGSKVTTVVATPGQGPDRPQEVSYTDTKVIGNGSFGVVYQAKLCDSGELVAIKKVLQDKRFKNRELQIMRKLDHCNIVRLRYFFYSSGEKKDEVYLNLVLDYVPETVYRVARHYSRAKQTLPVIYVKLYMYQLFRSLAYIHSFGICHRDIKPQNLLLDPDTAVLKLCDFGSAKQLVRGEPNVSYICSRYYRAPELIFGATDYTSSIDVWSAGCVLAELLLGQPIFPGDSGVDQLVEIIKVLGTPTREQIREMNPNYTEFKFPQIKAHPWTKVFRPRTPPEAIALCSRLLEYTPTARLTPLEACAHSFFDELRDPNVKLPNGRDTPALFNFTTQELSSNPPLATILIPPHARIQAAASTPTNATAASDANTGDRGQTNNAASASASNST
Chain of GSK3β TYR 216 (P49841 whole entry): as the sequence (P49841 whole entry, species assumed, the tested form may be a part) above
Chain of GSK3α TYR 279 (P49840 whole entry): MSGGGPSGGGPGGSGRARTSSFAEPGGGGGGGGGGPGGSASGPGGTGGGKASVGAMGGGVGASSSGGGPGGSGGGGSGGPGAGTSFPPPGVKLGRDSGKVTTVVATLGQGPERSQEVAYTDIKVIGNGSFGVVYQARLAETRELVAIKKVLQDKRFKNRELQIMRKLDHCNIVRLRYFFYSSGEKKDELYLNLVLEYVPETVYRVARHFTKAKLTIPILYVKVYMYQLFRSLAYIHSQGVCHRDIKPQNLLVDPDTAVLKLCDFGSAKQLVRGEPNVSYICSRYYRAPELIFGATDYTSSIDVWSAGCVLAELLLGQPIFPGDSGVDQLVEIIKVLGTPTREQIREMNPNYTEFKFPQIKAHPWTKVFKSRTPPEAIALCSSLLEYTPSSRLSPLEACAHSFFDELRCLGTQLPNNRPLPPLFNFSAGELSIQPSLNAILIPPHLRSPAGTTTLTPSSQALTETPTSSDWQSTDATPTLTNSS

Compound | Ki [1] | IC50 [2] | IC50 [3] | IC50 [4] | decrease in amyloid-β peptide tissue levels [5] | infarct size in rat brains [6]
Fc1cnc2[nH]nc(Nc3cc(Cl)nc(C4CCCCC4)n3)c2c1 [Compound I-1] | < 25 nM | – | – | – | – | –
Cc1nc(C2CCCCC2)nc(Nc2n[nH]c3ncc(F)cc23)c1C [Compound I-3] | < 25 nM | 0.7 nM | 13 nM | 3700 nM | – | –
Cc1nc(Nc2n[nH]c3ncc(F)cc23)cc(C2CCC(F)(F)CC2)n1 [Compound I-4] | < 25 nM | 1 nM | 20 nM | 210 nM | – | –
Cc1nc(C2CCOCC2)nc(Nc2n[nH]c3ncc(F)cc23)c1C [Compound I-5] | – | 30 nM | 800 nM | > 10000 nM | – | –
CC(C)(O)c1cc(Nc2n[nH]c3ncc(F)cc23)nc(C2CCCCC2)n1 [Compound I-21] | – | 3 nM | 20 nM | 1000 nM | – | –
[Li] [lithium] | – | – | – | – | > 50% | –
IGF-1: insulin growth factor-1, a known GSK-3 inhibitor | – | – | – | – | – | reduced infarct size

More lines, main results first:

Ki [1] | IC50 [2] | IC50 [3] | IC50 [4] | Compound | decrease in amyloid-β peptide tissue levels [5] | infarct size in rat brains [6]
25 to 500 nM | – | – | – | CN1CCN(c2cc(Nc3n[nH]c4ccc(F)cc34)nc(C3CCCCC3)n2)CC1 [Compound I-2] | – | –
– | 0.3 nM | 10 nM | 600 nM | Cc1cc(Nc2n[nH]c3ncc(F)cc23)nc(C2CCCCCC2)n1 [Compound I-8] | – | –
– | 2 nM | 48 nM | 1400 nM | Cc1cc(Nc2n[nH]c3ncc(F)cc23)nc(C2CCCC2)n1 [Compound I-9] | – | –
– | 0.5 nM | 6 nM | 400 nM | Cc1cc(Nc2n[nH]c3ncc(F)cc23)nc(C2CCCCC2)n1 [Compound I-10] | – | –
< 25 nM | – | – | – | Cc1cc(Nc2n[nH]c3ccc(F)cc23)nc(C2CCCC2)n1 [Compound I-14] | – | –
25 to 500 nM | 30 nM | 200 nM | 4830 nM | Cc1cc(Nc2n[nH]c3ccc(F)cc23)nc(C2CCOCC2)n1 [Compound I-15] | – | –
– | 3 nM | 30 nM | 110 nM | Cc1cc(Nc2n[nH]c3ncc(F)cc23)nc(C2CCOCC2)n1 [Compound I-17] | – | –
– | 1 nM | 300 nM | 2400 nM | Cc1cc(Nc2n[nH]c3ncc(F)cc23)nc([C@H]2CCCC[C@@H]2C)n1 [Compound I-18] | – | –
25 to 500 nM | – | – | – | Cc1cc(Nc2n[nH]c3ncc(F)cc23)nc(C2CC2)n1 [Compound I-20] | – | –
– | 2 nM | 25 nM | 1100 nM | Cc1cc(Nc2n[nH]c3ccc(F)cc23)nc(C2CCCCC2)n1 [Compound I-23] | – | –
